Test results: patent US12098176B2, “Keratin BD-4, preparation method, and pharmaceutical composition and use thereof” (Institute of Materia Medica, Chinese Academy of Medical …, priority 2019, dated 2024)
Where a name gives a salt, the structure may show the parent alone.

Tested on: phenol red excretion in mice
Test: Expectorant test, phenol red excretion method in mice
Type: in vivo, mouse
Procedure: Experimental example 5 The pharmacodynamic test of protein BD-4 (Example 4 protein) on the expectorant of phenol red excretion method in mice.
• Solvent control group; • Mucosultan 30 mg/kg group; • Protein BD-4, 20 mg/kg group, 50 mg/kg group. Method: Model Preparation and Administration:
The animals were fasted and watered 16 hours before the experiment. Orally administered Mucosultan and different doses of protein BD-4 (administration volume 10 ml/kg) in groups, and the solvent control group was given the same volume of distilled water. One hour later, 2.5% phenol red solution was injected intraperitoneally, Kill the mouse by removing the neck after 30 minutes. Take the trachea from below the thyroid cartilage to the branch of the trachea. Put the trachea into 3 ml 5% NaHCO3 solution and let it stand for 3 hours. Take 1 ml of the supernatant and centrifuge at 3000 rpm for 5 minutes. Measure and record the absorbance at 546 nm. According to the standard curve of phenol red, the excretion of phenol red was calculated.
Record the time point of oral administration, the time point of intraperitoneal injection of 2.5% phenol red solution, and the time point of tracheal extraction respectively; The absorbance of each group of samples was measured by the microplate reader at 546 nm, Calculate the excretion of phenol red according to the standard curve of phenol red. […]

Nc1c(Br)cc(Br)cc1CN[C@H]1CC[C@H](O)CC1 [Mucosolvan, ambroxol hydrochloride, reference compound]
Phenol red excretion (Mucosolvan 30 mg/kg oral, X ± SEM): 1.138 ± 0.079 µg/mL
Phenol red excretion vs solvent control group (Mucosultan 30 mg/kg, P<0.05): significantly increased
